Tests used:
hPR-A and hPR-B = assay: MMTV-Luc reporter gene transactivation in HBE cells transfected with hPR-A and/or hPR-B; type: cell-based, human
Description: T-47D and MCF-7 cell lines were respectively maintained in RPMI 1640 and in DMEM medium supplemented with 10% fetal calf serum (PAA Laboratory, Les Mureaux, France). […] Normal human breast epithelial cell (HBE) primary cultures were obtained from 20 women (aged 17-50 years). […] HBE cells were maintained in HAM F10 medium (PAA Laboratory, Les Mureaux, France) containing hydrocortisone (5 ng/ml), Triiodo-L-thyronine (6.5 ng/ml), choleratoxin (10 ng/ml), transferrin (5 mg/ml), insulin (0.016 U/ml), epidermal growth factor (10 ng/ml) (Sigma, St Quentin Fallavier, France) and 5% human serum (Etablissement Français du Sang).
After seeding, cells were cultured for 24 h in serum and phenol red free medium. Then treatments were carried out in a phenol red free medium containing 5% dextran-charcoal stripped serum. […] Control cells were treated with ethanol, at 10 1:1000 final ethanol concentration alone as vehicle or E2 (10 nM).
Cells were transfected with reporter gene plasmids containing glucocorticoid and progesterone responsive elements (GRE/PRE): 1) the MMTV-Luc is a Mouse Mammary Tumor Virus Long Terminal Repeat promoter containing one GRE/PRE palindrome and three GRE/PRE hemi-palindromes upstream to firefly luciferase gene in pFC31 vector, 2) the GRELuc contains six copies of GRE/PRE palindrome upstream to firefly luciferase gene in pBL vector. When indicated, HBE cells were transfected with human PR isoforms hPR-A and hPR-B expression plasmids constructed in POP3 vectors. Rous Sarcoma Virus promoter upstream to beta galactosidase gene (pRSV-β-Gal) was transfected in each experiment as control. Transfections were performed according to the manufacturer instructions using Lipofectamine or Lipofectamine LTX Reagents (Invitrogen, Cergy-Pontoise, France) for breast cancer cell lines or HBE cells, respectively. After 24 h of transfection, breast cancer and HBE cells were treated with hormones for 24 h or 48 h, respectively. At the end of the experiment, cells were lysed and luciferase activity was determined using the Luciferase Assay System (Promega, Charbonnières-les-bains, France). Beta galactosidase activity was assessed using the Galacto Star kit (Applied Biosystems, Courtaboeuf, France) to normalize luciferase activity data.

[1] = test system: PR target genes (FASN, cyclin A, BCL2, ALPL); assay: qRT-PCR mRNA expression of PR target genes in HBE cells; type: cell-based, human
Description: (§1) After seeding, cells were cultured for 24 h in serum and phenol red free medium. Then treatments were carried out in a phenol red free medium containing 5% dextran-charcoal stripped serum. Cells were treated with P or DEX (100 nM), alone or in combination with UPA, RU (1 nM to 1 μM) or CDB-3877 (100 nM). Control cells were treated with ethanol, at […] 1:1000 final ethanol concentration alone as vehicle or E2 (10 nM).
(§2) Total RNA was extracted using TriZOL Reagent (Invitrogen, Cergy-Pontoise, France).
(§3) 2 μg of total RNA was subjected to reverse transcription (RT) using random primers for 1 h at 37° C. 2 μl of RT product was diluted (1:10) and subjected to quantitative PCR using sequence specific primers (300 nM) and Brillant SYBR GREEN QPCR master mix (Fermentas, Saint-Rémy-lès-Chevreuse, France) on an Mx3000P apparatus (Agilent Technologies, Massy, France). Conditions were 1 cycle at 95° C. for 10 min followed by 40 cycles at 95° C. for 30 sec, 60° C. for 1 min and 72° C. for 30 sec. Gene expression values were normalized to the housekeeping gene 36B4. Time of steroid treatment was chosen to get the optimal stimulation for a given gene. ALPL and G0S8 mRNA were analyzed after 6 h of treatment. IEX-1, FASN, and BCL2 were analyzed after 24 h of treatment. Cyclin A mRNA was analyzed after 24 h for GR responses or 48 h for PR responses.

HBCx-34 tumors = assay: HBCx-34 human mammary ductal carcinoma xenograft tumor growth in nude mice; type: in vivo; details: UPA 130 mg/kg p.o., 42 days
Description: The xenograft model used in this study was HBCx-34. HBCx-34 is a mammary ductal carcinoma with wild type P53, no HER2 overexpression and PR and ERα overexpression. […] HBCx-34 has got no cachectic property.
HBCx-34 tumors (P14.0.0/2) were transplanted subcutaneously onto 5-10 mice (donor mice, passage (n-1), female athymic nude mice (Hsd:Athymic Nude-Fox1nu), 6- to 9-week-old, Harlan Laboratories (Gannat, France)). When these tumors reached 1000 to 2000 mm3 (between 60 to 78 days), donor mice were sacrificed by cervical dislocation, tumors were aseptically excised and dissected. After removing necrotic areas, tumors were cut into fragments measuring approximately 20 mm3 and transferred for 10 min maximum in sterile DMEM/F12 culture medium, without any additional components, before grafting.
Healthy mice aged 6 to 9 weeks and weighing at least 20 g were included in the study. Mice were anaesthetized with ketamine/xylazine, and then skin was aseptized with a chlorhexidine solution, incised at the level of the interscapular region, and a 20 mm3 tumor fragment was placed in the subcutaneous tissue. Skin was closed with clips.
Mice were allocated to different groups according to their tumor volume to give homogenous mean and median tumor volume in each treatment arms. Ten mice/group, with HBCx-34 tumors between 75 and 144 mm^3, were randomized according to their tumor volume into experimental groups, and treatments (UPA 130 mg/kg, p.o. or control vehicle) were initiated 33 days post implantation of the tumor for a total duration of 42 days.
Tumor volume was evaluated biweekly during all the experimental period. Tumors were collected at the end of treatment, weight and processed for analysis.

[2] = test system: GR target genes (IEX-1, G0S8, cyclin A, BCL2); assay: qRT-PCR mRNA expression of GR target genes in MCF-7 cells; type: cell-based, human
Description: as §1, §2, §3

[3] = test system: human breast tissue carrying BRCA1 mutations, xenografts; assay: Ki67 mitotic index in BRCA1 mutated human breast tissue xenografted in nude mice; type: in vivo; details: E2+P+UPA vs E2+P, lobular and ductal cells, 28 days
Description: Mitotic index was calculated using the Ki67 antibody, and was determined for each breast tissue grafted into mice. Immunohistochemical analyses were performed using the BOND-MAX workstation (Leica, Nanterre, France). Paraffin sections of breast tissue xenografts were de-waxed and rehydrated before antigen retrieval using citrate retrieval solution (pH 6.0) for Ki67 antibody or EDTA retrieval solution (pH 9.0) for PR and ERalpha antibodies, for 30 min. Sections were then incubated with Ki67 at 1:100 (Novocastra, NCL5 L-Ki67-MM1), PR at 1:80 (Biogenex, MU-328-UC) or ER at 1:300 (Novocastra, NCL-L6 ER-6F11) monoclonal antibodies. For signal detection, the Kit Bond Polymer Refire Detection was used. Reagents were purchased from Menarini-Diagnostic (Rungis, France). A negative control (omitting the first antibody) was included in each set. For each marker, determination of the ratio of positive cells was performed on a total of 1 000 lobular and 1 000 ductal luminal cells in the 4 breast tissue fragments grafted into each mouse. For each experiment, the final percentages for each treatment were the mean of percentages obtained in the four mice per group.
Mutated breast tissue samples were obtained from 5 women (36-57 years old) carrying mutations for BRCA1.
Xenografts were performed as described above (Example 2). […]

MCF-7 cells = assay: Tritiated thymidine incorporation (proliferation) in MCF-7 cells; type: cell-based, human; details: 48 h
Description: as §1
After 24 h of hormonal treatment, cells were incubated with [methyl-1 3H] thymidine (Perkin Elmer, Courtaboeuf, France) for 48 h or 20 h for KBE or cancer cells, respectively at 37° C. After incubation cells were washed twice with PBS 1× and once with 5% trichloroacetic acid (TCA). Cells were incubated in 5% TCA for 15 min at 4° C. and lysed in NaOH 0.1 N for 30 min at 37° C. The total cell lysate was added to 5 ml of Ecolite scintillation liquid (MP biomedical, Illkirch, France) and radioactivity was counted with a β-counter HIDEX 300SL (ScienceTec, Courtaboeuf, France).

[4] = P and/or UPA 100 nM, E2 10 nM, 24 h

## CC(=O)O[C@]1(C(C)=O)CCC2C3CCC4=CC(=O)CCC4=C3[C@@H](c3ccc(N(C)C)cc3)C[C@@]21C (stereo partly shown) [UPA, 17[…]-acetoxy-11[…]-[4-N,N-dimethylamino-phenyl)-19-norpregna-4,9-diene-3,20-dione]
hPR-A and hPR-B; HBE cells co-transfected with hPR-A and hPR-B, P 100 nM, antagonist 1 to 1000 nM
  inhibition of P induced MMTV-Luc transactivation: inhibited P induced MMTV11 Luc transactivation in a dose dependent manner from 1 000 to 10 nM
hPR-A and hPR-B; HBE cells transfected with only hPR-A or hPR-B
  antagonist performance between PR isoforms (MMTV-Luc): No difference with increasing the levels of each PR isoform was seen on UPA antagonist performance
hPR-A and hPR-B; HBE cells, MMTV-Luc, P 100 nM
  lowest concentration necessary to exert a complete antagonist activity: A hundred
hPR-A and hPR-B; HBE cells, compound alone
  progestational agonist properties on reporter gene transcription: did not exhibit progestational agonist properties
[1]; [4]
  BCL2 mRNA expression (PR response): did not reverse BCL2 mRNA down-regulation induced by P
  FASN mRNA expression: able to prevent P induction of FASN mRNA expression
[1]; P and/or UPA 100 nM, E2 10 nM, 48 h
  cyclin A mRNA expression (PR response): reversed P-induced cyclin A mRNA down-regulation
[1]; UPA 100 nM alone
  PR agonist activity on PR target genes: did not display any PR agonist activity
HBCx-34 tumors
  ratio of TV in treated vs. control group (T/C): 53%
HBCx-34 tumors; control 4.63-fold
  increase in mean tumor volume (TV) at the end of treatment: 2.17 fold
HBCx-34 tumors; control 625.0±108.6 mm^3
  mean TV at sacrifice: 332.0±61.0 mm^3
[2]; DEX and/or UPA 100 nM, 6 h, p<0.001
  G0S8 mRNA expression: anti-glucocorticoid activity was strong
[2]; DEX and/or UPA 100 nM, 24 h
  BCL2 mRNA expression (GR response): partially antagonized this effect
  IEX-1 mRNA expression: did not antagonize this response
  cyclin A mRNA expression (GR response): partially inhibited DEX effect on cyclin A mRNA expression
[2]; UPA 100 nM alone
  glucocorticoid agonist activity on GR target genes: did not display any glucocorticoid agonist activity
[3]
  proliferation (Ki67 mitotic index) stimulated by E2+P: exhibited antiproliferative activity
MCF-7 cells; 100 nM
  cell proliferation ([3H] thymidine incorporation), compound alone: had no effect on proliferation
MCF-7 cells; DEX 100 nM + UPA 100 nM
  effect of UPA on DEX-mediated proliferation change: tended to prevent the weak anti-proliferative effects of DEX

From patent US9814732B2, “Ulipristal acetate for prevention and treatment of breast tumors” (LABORATOIRE HRA-PHARMA, priority 2012, dated 2017)
